Data reported in US9221781B2, “Synthesis of polyhydroxy chromenone compounds and their anti-tumor effects” (BEIJING SHENOGEN PHARMA GROUP LTD., priority 2012, dated 2015).
Like-named read-outs stand apart in the source and are kept apart here.

Columns and labels:
HL-60 cells = assay: Inhibition of growth of acute myeloblastic leukemia HL-60 cells by MTT method; type: cell-based, human; conditions: 72 hours; for inhibition at 1 µM: Homo sapiens, 10^−6M, read-out: The inhibition percentage of cell proliferation by the compounds with a concentration of 10^−6M, HL-60 cells
Protocol: A: Inhibition of Growth of Acute Myeloblastic Leukemia HL-60 Cells by the Compounds Detected by MTT Method
(§1) The acute myeloblastic leukemia HL-60 cells from ATCC were maintained in IMDM and 10% fetal calf serum at 37° C. in a 5% CO2 atmosphere. The cells were subseeded in a 96-well culture plate at a concentration of 6×10^3 cells/well. HL-60 cells were treated with a test compound dissolved in DMSO at the concentration of 0, 10^−4M, 10^−5M, 10^−6M, 10^−7M, 10^−8M for 72 hours. OD value was tested by MTT method, and the inhibition ratio was calculated.

Molt-4 cells = assay: Inhibition of growth of acute lymphoblastic leukemia Molt-4 cells by MTT method; type: cell-based; conditions: 72 hours; for inhibition at 1 µM: Homo sapiens, 10^−6M, read-out: The inhibition percentage of cell proliferation by the compounds with a concentration of 10^−6M, Molt-4 cells
Protocol: B: Inhibition of Growth of Acute Lymphoblastic Leukemia Molt-4 Cells by the Compounds Detected by MTT Method
as §1, with “lymphoblastic” for “myeloblastic”, “Molt-4” for “HL-60”, “RPMI-1640” for “IMDM”, “cells/well and maintained RPMI-1640 and 10% fetal calf serum at 37° C. 5%CO2 atmosphere. Molt-4” for “cells/well. HL-60”

K562 cells = assay: Viability of chronic leukemia cells K562 by CellTiter-Glo Luminescent Assay in vitro; type: cell-based, human; conditions: 72 hours, read-out: Inhibition of viability of cells in vitro IC50, K562 cells
Protocol: A: Detection of Viability of Chronic Leukemia Cells K562 by CellTiter-Glo® Luminescent Assay In Vitro
(§2) The chronic leukemia cells K562 from ATCC were maintained in IMDM and 10% fetal calf serum at 37° C. in a 5% CO2 atmosphere. The cells were subseeded in a 96-well culture plate at a cencentration of 6×10^3 cells/well.K562 cells were treated with a test compound dissolved in DMSO at the concentration of 0, 0.3 μM, 0.5 μM, 1 μM, 2 μM, 3 μM, 5 μM, 10 μM, 20 μM, 30 μM, 50 μM and 100 μM for 72 hours. Treated cells were examined by CellTiter-Glo® Luminescent Cell Viability Assay Kit (Promega), and luminescence were recorded with Envision.

Daudi cells = assay: Inhibition of human B lymphoma Daudi cells by CellTiter-Glo Luminescent Assay in vitro; type: cell-based; conditions: 72 hours, read-out: Inhibition of viability of cells in vitro IC50, Daudi cells
Protocol: A: Inhibition of Human B Lymphoma Daudi Cells by CellTiter-Glo® Luminescent Assay In Vitro
as §2, with “Human B Lymphoma Daudi” for “chronic leukemia”, “cells” for “cells K562”, “concentration” for “cencentration”, “cells/well. Human B Lymphoma Daudi” for “cells/well.K562”, “μM,” for “μM, 5 μM,”, “CeliTiter-Glo®” for “CellTiter-Glo®”

MCF7 cells = assay: CellTiter-Glo Luminescent Cell Viability Assay on ER-positive breast cancer MCF-7 cells in vitro; type: cell-based; conditions: Homo sapiens, 72 hours, read-out: Inhibition of viability of breast cancer cells IC50, MCF7 cells
Protocol: B: CellTiter-Glo® Luminescent Cell Viability Assay on ER-Positive Breast Cancer MCF-7 Cells In Vitro:
MCF7 cells from ATCC were maintained in an Dulbecco's modified Eagle medium (DMEM), and 10% fetal calf serum at 37 in a 5% CO2 atmosphere. Cells were placed at a density of 6×10^3 cells per well in a 96-well plate. MCF 7 cells were treated with a test compound dissolved in DMSO at the concentration of 0, 0.3 μM, 0.5 μM, 1 μM, 2 μM, 3 μM, 5 μM, 10 μM, 20 μM, 30 μM, 50 μM and 100 μM for 72 hours. Treated cells were examined through CellTiter-Glo® Luminescent Cell Viability Assay Kit (Promega), and luminescence were recorded with Envision.

MDA-MB-231 cells = assay: CellTiter-Glo Luminescent Cell Viability Assay on ER-negative breast cancer MDA-MB-231 cells in vitro; type: cell-based; conditions: Homo sapiens, 72 hours, read-out: Inhibition of viability of breast cancer cells IC50, MDA-MB-231 cells
Protocol: A: CellTiter-Glo® Luminescent Cell Viability Assay on ER-Negative Breast Cancer MDA-MB-231 In Vitro:
MDA-MB-231 cells were maintained at 37° C., in a 5% CO2 atmosphere in DMEM and 10% fetal calf serum. The cells were placed at a density of 6×10^3 cells per well in a 96-well plate. MDA-MB-231 cells were treated with a test compound dissolved in DMSO at the concentration of 0, 0.3 μM, 0.5 μM, 1 μM, 2 μM, 3 μM, 5 μM, 10 μM, 20 μM, 30 μM, 50 μM and 100 μM for 72 hours. Treated cells were examined under CellTiter-Glo® Luminescent Cell Viability Assay Kit (Promega), and luminescence were recorded with Envision.

BEL-7402 cells = assay: Inhibition of liver cancer cell BEL-7402 in vitro by SRB; type: cell-based; conditions: Homo sapiens, 10^−6M, 72 hours, read-out: The inhibition percentage of cell proliferation by the compounds with a concentration of 10^−6M, BEL-7402 cells
Protocol: A: Inhibition of Liver Cancer Cell BEL-7402 In Vitro by the Compounds Detected by SRB
The liver cancer BEL-7402 cells from ATCC were maintained in DMDM, 10% NCS and 50 μg/ml KANA at 37° C. in a 5% CO2 atmosphere, and were subseeded in a 96-well culture plate at a concentration of 6×10^3 cells/well. BEL-7402 cells were treated with a test compound dissolved in DMSO at the concentration of 0, 10^−4M, 10^−5M, 10^−6M, 10^−7M, 10^−8M for 72 hours. OD value was tested by SRB method, and the inhibition percentage was calculated.

Molecule | The inhibition percentage of cell proliferation by the compounds with a concentration of 10^−6M, HL-60 cells (HL-60 cells) | The inhibition percentage of cell proliferation by the compounds with a concentration of 10^−6M, Molt-4 cells (Molt-4 cells) | IC50 (K562 cells) [µM] | IC50 (Daudi cells) [µM] | inhibition at 1 µM (Molt-4 cells) [%] | IC50 (K562 cells; Homo sapiens) [µM] | IC50 (MCF7 cells) [µM] | IC50 (Daudi cells; Homo sapiens) [µM] | IC50 (MDA-MB-231 cells) [µM] | inhibition at 1 µM (BEL-7402 cells) [%] | inhibition at 1 µM (HL-60 cells) [%]
2-(4-fluorophenyl)-3-methoxy-5,7-dihydroxy-8-(3-methyl-2-buten-1-yl)-4H-chromen-4-one [Compound 11] | NA (NA means no activity, and inhibition percentage by the compound with a concentration of 10^−6M was below 10%.) | NA (NA means no activity, and inhibition percentage by the compound with a concentration of 10^−6M was below 10%.) | > 100 | > 100 | – | – | – | – | – | – | –
CC(C)=CCc1c(O)cc(O)c2c(=O)c(O)c(-c3ccc(F)cc3)oc12 [Compound 2, 2-(4-fluorophenyl)-3,5,7-trihydroxy-8-(3-methyl-2-buten-1-yl)-4H-chromen-4-one] | – | – | – | – | < 10 | 6.14 | 3.17 | 9.23 | > 100 | 21.8 | –
CC(C)=CCc1c(O)cc(O)c2c(=O)c(O)c(-c3ccc(Cl)c(F)c3)oc12 [Compound 3, 2-(3-fluoro-4-chlorophenyl)-3,5,7-trihydroxy-8-(3-methyl-2-buten-1-yl)-4H-chromen-4-one] | – | – | – | – | 14.4 | 1.85 | 8.6 | 2.91 | 2.87 | 28.6 | 28.5
CC(C)=CCc1c(O)cc(O)c2c(=O)c(O)c(-c3ccc(Cl)cc3)oc12 [Compound 4, 2-(4-chlorophenyl)-3,5,7-trihydroxy-8-(3-methyl-2-buten-1-yl)-4H-chromen-4-one] | – | – | – | – | 14.7 | 0.974 | 16 | 2.64 | 4.33 | 46.4 | 0.974
CC(C)=CCc1c(O)cc(O)c2c(=O)c(O)c(-c3ccc(OC(F)(F)F)cc3)oc12 [Compound 5, 2-(4-trifluoromethoxyphenyl)-3,5,7-trihydroxy-8-(3-methyl-2-buten-1-yl)-4H-chromen-4-one] | – | – | – | – | 69.4 | 1.48 | 6.85 | 1.49 | 4.48 | 15.6 | 59.8
CC(C)=CCc1c(O)cc(O)c2c(=O)c(O)c(-c3ccc(Cl)c(Cl)c3)oc12 [Compound 6, 2-(3,4-dichlorophenyl)-3,5,7-trihydroxy-8-(3-methyl-2-buten-1-yl)-4H-chromen-4-one] | – | – | – | – | 67.4 | 0.935 | 6.85 | 1.98 | 1.88 | 14.9 | 61.9
CC(C)=CCc1c(O)cc(O)c2c(=O)c(O)c(-c3ccc(Cl)c(C(F)(F)F)c3)oc12 [Compound 7, 2-(3-trifluoromethyl-4-chlorophenyl)-3,5,7-trihydroxy-8-(3-methyl-2-buten-1-yl)-4H-chromen-4-one] | – | – | – | – | 57 | 6.14 | 7.54 | 4.07 | 9.3 | 19.8 | < 10
COc1c(-c2ccc(C(F)(F)F)cc2)oc2c(CC=C(C)C)c(O)cc(O)c2c1=O [Compound 9, 2-(4-trifluoromethylphenyl)-3-methoxy-5,7-dihydroxy-8-(3-methyl-2-buten-1-yl)-4H-chromen-4-one] | – | – | – | – | < 10 | – | > 100 | – | > 100 | 11.7 | < 10
COc1c(-c2ccc(F)c(F)c2)oc2c(CC=C(C)C)c(O)cc(O)c2c1=O [Compound 10, 2-(3,4-difluorophenyl)-3-methoxy-5,7-dihydroxy-8-(3-methyl-2-buten-1-yl)-4H-chromen-4-one] | – | – | – | – | – | > 100 | 31.5 | 21.8 | > 100 | 17.4 | –
COc1cccc2c1C(=O)c1c(O)c3c(c(O)c1C2=O)C[C@@](O)(C(=O)CO)C[C@@H]3O[C@H]1C[C@H](N)[C@H](O)[C@H](C)O1 [Doxorubicin, reference compound] | – | – | – | – | 90.1 | – | – | – | – | 55.2 | 79
Nc1ccn([C@@H]2O[C@H](CO)[C@@H](O)[C@@H]2O)c(=O)n1 [cytarabinen, reference compound] | – | – | – | 10 | – | – | – | – | – | – | –
